Assay results reported in US20230202989A1, “COMPOUNDS” (JANSSEN PHARMACEUTICA NV, priority 2020, published 2023).
Read-outs that look alike come from different tables or passages of the source.

Legend:
IL-1β = assay: PBMC assay: inhibition of IL-1β release after LPS stimulation (MSD); format: cell-based; details: human PBMCs, read-out: IL1β IC50
Protocol: Peripheral venous blood s collected from health individuals and human peripheral blood mononuclear cells (PBMCs) ere isolated from blood by Ficoll Histopaque (Sigma-Aldrich, A0561) density gradient centrifugation. After isolation, PBMCs were stored in liquid nitrogen for later use. Upon thawing, PBMC cell viability was determined in growth medium (RPMI media supplemented with 10% fetal bovine serum, 1% Pen-Strep and 1% L-glutamine). […] PBMCs were added at a density of 7.5×10^4 cells per well and incubated for 30 min in a 5% CO2 incubator at 37° C. LPS stimulation was performed by addition of 100 ng/ml LPS (final concentration, Invivogen, tlrl-smlps) for 6 hrs followed by collection of cellular supernatant and the analysis of IL-1β (μM) and TNF cytokines levels (μM) via MSD technology according to manufacturers' guidelines (MSD, K151A0H).
(§1) The IC50 values (for IL-1β) and EC50 values (TNF) were obtained on compounds of the invention/examples, and are depicted in the following table: […]

TNF = assay: PBMC assay: TNF cytokine levels after LPS stimulation (MSD); format: cell-based; details: human PBMCs, 100 ng/ml LPS for 6 hrs
Protocol: Peripheral venous blood s collected from health individuals and human peripheral blood mononuclear cells (PBMCs) ere isolated from blood by Ficoll Histopaque (Sigma-Aldrich, A0561) density gradient centrifugation. After isolation, PBMCs were stored in liquid nitrogen for later use. Upon thawing, PBMC cell viability was determined in growth medium (RPMI media supplemented with 10% fetal bovine serum, 1% Pen-Strep and 1% L-glutamine). Compounds were spotted in a 1:3 serial dilution in DMSO and diluted to the final concentration in 30 μl medium in 96 well plates (Falcon, 353072). PBMCs were added at a density of 7.5×10^4 cells per well and incubated for 30 min in a 5% CO2 incubator at 37° C. LPS stimulation was performed by addition of 100 ng/ml LPS (final concentration, Invivogen, tlrl-smlps) for 6 hrs followed by collection of cellular supernatant and the analysis of IL-1β (μM) and TNF cytokines levels (μM) via MSD technology according to manufacturers' guidelines (MSD, K151A0H).
as §1

[1] = Homo sapiens, PBMC, 6 h, 100 ng/ml LPS for 6 hrs, MSD, 96 well plates
[2] = 100 ng/ml LPS for 6 hrs, MSD, 96 well plates

SMILES	IC50 (IL-1β; [1]) [µM]	EC50 (TNF; Homo sapiens, PBMC, 6 h) [µM]	IC50 (IL-1β; Homo sapiens, PBMC, LPS stimulation, 384 well plate) [µM]	IC50 (IL-1β; [2]) [µM]	EC50 (TNF) [µM]
CC(C)c1nn(CC(=O)N[C@H]2C[C@@](O)(C(F)(F)F)C2)c(=O)c2ccc(C(F)(F)F)cc12 [Final Cpd X119]	2.13	> 20	–	–	–
CC(C)c1nn(CC(=O)Nc2ccc3nncn3c2)c(=O)c2c(F)cc(C(F)(F)F)cc12 [Final Cpd X71]	0.751	> 20	–	–	–
CC(C)c1nn(CC(=O)Nc2ccc3cncn3c2)c(=O)c2ccc(Cl)cc12 [X-1030]	0.436	> 20	–	–	–
COC(C)(C)c1ccc2c(=O)n(CC(=O)N[C@H]3C[C@@](C)(O)C3)nc(C(C)C)c2c1 [X-1058]	4.55	> 20	–	–	–
CCN1CC[C@@H](O)[C@@H](NC(=O)Cn2nc(C(C)C)c3cc(C(F)(F)F)ccc3c2=O)C1 [Final Cpd X6, N-((3S,4R)-1-ethyl-4-hydroxypiperidin-3-yl)-2-(4-isopropyl-1-oxo-6-(trifluoromethyl)phthalazin-2(1H)-yl)acetamide]	0.066	> 20	–	–	–
CC(C)c1nn(CC(=O)Nc2cc(Br)c3ncnn3c2)c(=O)c2ccc(C(F)(F)F)cc12 [Final Cpd X132]	3.25	> 20	–	–	–
C[C@]1(O)C[C@@H](NC(=O)Cn2nc(C3(F)CC3)c3cc(C(F)(F)F)ccc3c2=O)C1 [Final Cpd X134]	3.41	> 20	–	–	–
CC(C)c1nn(CC(=O)Nc2cnc3nccn3c2)c(=O)c2ccc(C(F)(F)F)cc12 [Final Cpd X73]	0.792	> 20	–	–	–
CC(C)c1nn(CC(=O)Nc2ccc3nncn3c2)c(=O)c2ccc(C3(F)CC3)cc12 [X-1074]	0.027	14.8	–	–	–
Cc1nnc2n1C[C@@H](NC(=O)Cn1nc(C(C)C)c3cc(C(F)(F)F)ccc3c1=O)CC2 (single isomer, unassigned) [Final Cpd X41]	0.351	> 20	–	–	–
Cc1cn2cc(NC(=O)Cn3nc(C(C)C)c4cc(C(F)(F)F)ccc4c3=O)ccc2n1 [Final Cpd X27]	0.189	> 20	–	–	–
CC(C)c1nn(CC(=O)N[C@H]2CN(C3CC3)CC[C@H]2O)c(=O)c2ccc(C(F)(F)F)cc12 [Final Cpd X15, N-((3S,4R)-1-cyclopropyl-4-hydroxypiperidin-3-yl)-2-(4-isopropyl-1-oxo-6-(trifluoromethyl)phthalazin-2(1H)-yl)acetamide]	0.122	> 20	–	–	–
COC(C)(C)c1ccc2c(=O)n(CC(=O)Nc3ccc4nncn4c3)nc(C(C)C)c2c1 [X-1057]	1.91	17.5	–	–	–
CC(C)c1nn(CC(=O)N[C@H]2COC[C@H](O)C2)c(=O)c2ccc(C(F)(F)F)cc12 (mixture of isomers) [Final Cpd X148]	6.32	> 20	–	–	–
CC(C)c1nn(CC(=O)Nc2ccn3ccnc3c2)c(=O)c2ccc(C(F)(F)F)cc12 [Final Cpd X54]	0.451	> 20	–	–	–
COC(C)c1nn(CC(=O)Nc2ccc3nncn3c2)c(=O)c2ccc(C(F)(F)F)cc12 (stereo not shown) [Final Cpd X102]	1.3	> 20	–	–	–
CC(C)CN1CCc2cc(NC(=O)Cn3nc(C(C)C)c4cc(C(F)(F)F)ccc4c3=O)ccc21 [Final Cpd X168]	> 20	> 20	–	–	–
CC(=O)N1C[C@@H](O)C[C@@H](NC(=O)Cn2nc(C(C)C)c3cc(C(F)(F)F)ccc3c2=O)C1 (single isomer, unassigned) [Final Cpd X164]	15.3	> 20	–	–	–
CC(C)c1nn(CC(=O)Nc2ccc3nncn3c2)c(=O)c2ccc(C(C)(C)C)cc12 [X-1048]	0.27	8.08	–	–	–
CCc1nn(CC(=O)Nc2ccncn2)c(=O)c2ccc(C(F)F)cc12 [Final Cpd 16]	–	> 10	0.92	–	–
CC(C)c1nn(CC(=O)N[C@@H]2CC[C@H]2O)c(=O)c2ccc(C(F)(F)F)cc12 (single isomer, unassigned) [Final Cpd X149]	6.49	> 20	–	–	–
CCc1nn(CC(=O)Nc2ccn(C(C)C)n2)c(=O)c2ccc(C3CC3)cc12 [X-1026]	> 20	> 20	–	–	–
O=C(Cn1nc(C(F)F)c2cc(C(F)(F)F)ccc2c1=O)Nc1ccncn1 [Final Cpd X50]	0.438	> 20	–	–	–
CC(=O)c1nn(CC(=O)Nc2ccn(C(C)C)n2)c(=O)c2ccc(Br)cc12 [X-1014, 2-(4-acetyl-6-bromo-1-oxophthalazin-2(1H)-yl)-N-(1-isopropyl-1H-pyrazol-3-yl)acetamide]	> 20	> 20	–	–	–
CC(C)c1nn(CC(=O)N[C@H]2C[C@](O)(C(F)(F)F)C2)c(=O)c2ccc(C(F)(F)F)cc12 [Final Cpd X35]	–	> 20	–	0.303	–

SMILES	IC50 (IL-1β; [1]) [µM]	EC50 (TNF; Homo sapiens, PBMC, 6 h) [µM]	IC50 (IL-1β; Homo sapiens, PBMC, LPS stimulation, 384 well plate) [µM]	IC50 (IL-1β; [2]) [µM]	EC50 (TNF) [µM]
CC(O)c1nn(CC(=O)Nc2ccc3nncn3c2)c(=O)c2ccc(Br)cc12 (stereo not shown) [X-1082]	0.346	> 20	–	–	–
Cc1cn2nc(NC(=O)Cn3nc(C(C)C)c4cc(C(F)(F)F)ccc4c3=O)ccc2n1 [Final Cpd X53]	0.444	> 20	–	–	–
CC(C)c1nn(CC(=O)Nc2ccc(C3CC3)nn2)c(=O)c2ccc(C(F)(F)F)cc12 [Final Cpd X179]	> 20	> 20	–	–	–
CCc1nn(CC(=O)N[C@H]2C[C@@](C)(O)C2)c(=O)c2ccc(Br)cc12 [Final Cpd 18]	0.03	> 10	–	–	–
CO[C@]1(C)C[C@H](NC(=O)Cn2nc(C(C)C)c3cc(Br)ccc3c2=O)C1 [X-1088]	0.196	> 20	–	–	–
CC(C)c1nn(CC(=O)Nc2cc(C(F)(F)F)ncn2)c(=O)c2ccc(C(F)(F)F)cc12 [Final Cpd X178]	> 20	> 20	–	–	–
CCc1nn(CC(=O)Nc2ccncn2)c(=O)c2ccc(OC)cc12 [Final Cpd 11]	1.24	> 10	–	–	–
CCN1CCC[C@@H](NC(=O)Cn2nc(C(C)C)c3cc(C(F)(F)F)ccc3c2=O)C1 [Final Cpd X9]	0.09	> 20	–	–	–
CCc1nn(CC(=O)N[C@H]2CC[C@H](O)CC2)c(=O)c2ccc(C3CC3)cc12 [Final Cpd 27]	1.66	> 10	–	–	–
CC(C)c1nn(CC(=O)N[C@@H]2C[C@H](O)CN(C)C2)c(=O)c2ccc(C(F)(F)F)cc12 (mixture of isomers) [Final Cpd X133]	–	–	–	3.38	> 20
CCc1nn(CC(=O)Nc2ccncn2)c(=O)c2ccc(C3CC3)cc12 [Final Cpd 5]	0.42	> 10	–	–	–
O=C(Cn1nc(C(F)F)c2cc(C(F)(F)F)ccc2c1=O)Nc1ccc2nncn2c1 [Final Cpd X32]	0.235	> 20	–	–	–
CCN1CCC[C@H](NC(=O)Cn2nc(C(C)C)c3cc(C(F)(F)F)ccc3c2=O)C1=O (single isomer, unassigned) [Final Cpd X129]	3.07	> 20	–	–	–
CCN1CCC[C@H](NC(=O)Cn2nc(C(C)C)c3cc(Br)ccc3c2=O)C1 (stereo in doubt) [X-1032]	0.031	> 20	–	–	–
CC(C)c1nn(CC(=O)N[C@H]2CC[C@@H](O)CC2)c(=O)c2ccc(C(F)(F)F)cc12 [Final Cpd X42]	0.353	15	–	–	–
CC[C@H](C)c1nn(CC(=O)Nc2ccc3nncn3c2)c(=O)c2ccc(C(F)(F)F)cc12 (single isomer, unassigned) [Final Cpd X43]	0.374	> 20	–	–	–
CC(C)c1nn(CC(=O)Nc2cn3cnnc3cn2)c(=O)c2ccc(C(C)(F)F)cc12 [X-1085]	0.143	> 20	–	–	–
CC(C)c1nn(CC(=O)Nc2ccc3nncn3c2)c(=O)c2ccc(Br)cc12 [Final Cpd 36]	< 0.025	> 10	–	–	–
CC(C)c1nn(CC(=O)Nc2ccc3nccn3n2)c(=O)c2ccc(C(C)(F)F)cc12 [X-1006]	0.128	4.47	–	–	–
CCc1nn(CC(=O)N[C@H]2CC[C@H](O)CC2)c(=O)c2ccc(C(C)C)cc12 [Final Cpd 28]	0.97	> 10	–	–	–
CC(C)c1nn(CC(=O)Nc2ccc3nncn3c2)c(=O)c2ccc(C(F)(F)F)c(C#N)c12 [Final Cpd X170]	> 20	> 20	–	–	–
Cc1c(NC(=O)Cn2nc(C(C)C)c3cc(C(F)(F)F)ccc3c2=O)ccc2nccn12 [Final Cpd X74]	0.804	> 20	–	–	–
COC(C)c1nn(CC(=O)Nc2ccc3nncn3c2)c(=O)c2ccc(Br)cc12 (stereo not shown) [X-1017]	0.506	> 20	–	–	–
CCc1nn(CC(=O)Nc2ccc3nncn3c2)c(=O)c2ccc(C(F)(F)F)cc12 [Final Cpd X8]	0.075	12.2	–	–	–
CC(C)c1nn(CC(=O)N[C@H]2CN(CC[C@@H](C)O)CC[C@H]2O)c(=O)c2ccc(C(F)(F)F)cc12 [Final Cpd X70]	0.74	> 20	–	–	–
